Patent publication US6713043B2 (priority 1996, dated 2004)
Converted amounts (≈) assume the structure as drawn.

System: M. tuberculosis (21 clinical and CDC strains, pan-sensitive and multidrug resistant)
Experiment: microbe, parasite or virus in culture
Format: cell-based, Mycobacterium tuberculosis

Cc1ccc(C)c(OCCCC(C)(C)C(=O)O)c1 [GFZ, Gemfibrozil]
difference in sensitivity among the 21 strains: No greater than a two fold difference | MIC (Mycobacterium tuberculosis, 504 h, read-out: MIC (GFZ concentration at which no growth was seen)): 100 to 200 µg/mL (≈ 399 to 799 µM)
